Results as given in patent US20040192699A1, “Optic nerve protecting agents containing alpha1 receptor blocker as active ingredient” (Santen Pharmaceutical Co., Ltd., priority 2001, published 2004).
Counter-ions that a name gives are not always drawn.

Experiments:
[1] = tested on: rat fetal retinal nerve cells in culture; assay: Death of rat fetal retinal nerve cells in culture induced by glutamate addition (trypan blue dye exclusion); format: cell-based; conditions: 10 min, then 1 h drug-free, average
Experimental: (1) The action of the α1 receptor blocker on the death of rat fetal retinal nerve cells in culture as induced by glutamate addition
Retinal cells were taken out of a rat fetus (age of E18 days) and isolated, then cultured in an Eagle's basal culture medium containing 10% bovine fetus serum on a polyethylene imine-coated plastic cover slip for 7 days (37° C., 5% CO2/95% air). On the eighth day and thereafter, the cells were cultured in an Eagle's basal culture medium containing 10% horse serum. On the sixth day of the cultivation, cytosine arabinoside (10 μM) was added to suppress the growth of non-neuronal cells. On the eleventh day of the cultivation, the cells were cultured in a serum-free Eagle's basal culture medium supplemented with glutamate (1 mM) and an a, receptor blocker, for 10 minutes. Then, the cells were transferred to a serum-free Eagle's basic culture medium with no content of glutamate and an α1 receptor blocker, and cultured for one hour. Subsequently, toxicity was determined by the trypan blue dye exclusion method. Specifically, the cells were stained with 1.5% trypan blue solution for 10 minutes, fixed in 10% neutral formalin solution and rinsed with physiological saline. Subsequently, the cells were counted with a phase contrast microscope. The cells stained with trypan blue were defined as dead cells, while the cells never stained were defined as live cells. Based on the rate of the live cells to the total cells (200 or more), the survival rate of the culture cells was determined. A group with the addition of 1 mM glutamate alone and a group with the addition of both 1 mM glutamate and an α1 receptor blocker were defined as “1 mM glutamate single-addition group” and “group of 1 mM glutamate+α1 receptor blocker addition”, respectively. […] At this experiment, bunazosin hydrochloride, prazosin hydrochloride, terazosin hydrochloride and naftopidil hydrochloride were used as such α1 receptor blockers.

[2] = tested on: rat fetal retinal nerve cells in culture; assay: Death of rat fetal retinal nerve cells in culture induced by serum elimination (trypan blue dye exclusion; TUNEL method); format: cell-based; set-up: dose or concentration left out as unconfirmed; conditions: serum elimination + test compound, 24 hours, average
Experimental: (2) The action of the a, receptor blocker on the death of rat fetal retinal nerve cells in culture as induced by serum elimination
Retinal cells were taken out of a rat fetus (age of E18 days) and isolated, then cultured in an Eagle's basal culture medium containing 10% bovine fetus serum on a polylysine-coated glass cover slip for 7 days (37° C., 5% CO2/95% air). On the eighth day and thereafter, the cells were cultured in an Eagle's basal culture medium containing 10% horse serum. On the sixth day of the cultivation, cytosine arabinoside (10 μM) was added to suppress the growth of non-neuronal cells. […] Subsequently, toxicity was determined by the trypan blue dye exclusion method. Specifically, the cells were stained with 1.5% trypan blue solution for 10 minutes, fixed in 10% neutral formalin solution and rinsed with physiological saline. Subsequently, the cells were counted with a phase contrast microscope. […] Based on the rate of the live cells to the total cells (200 or more), the survival rate of the culture cells was determined. Using the TUNEL method, additionally, the TUNEL-positive cells (apoptosis cells) increasing due to the serum elimination and the TUNEL-negative cells (live cells) were counted, to calculate the rate of the TUNEL-positive cells to the total cells. […]

[3] = 1 mM glutamate + 10 μM test compound
[4] = 1 mM glutamate + 0.1 μM test compound

Compound	Survival rate (%) of retinal nerve cells in culture ([1]; 1 mM glutamate + 1 μM test compound) [%]	Survival rate (%) of retinal nerve cells in culture [1, 3] [%]	Survival rate (%) of retinal nerve cells in culture ([1]; 1 mM glutamate + 0.01 μM test compound) [%]	Survival rate (%) of retinal nerve cells in culture [1, 4] [%]	Rate (%) of TUNEL-positive cells ([2]; TUNEL method) [%]	Survival rate (%) of retinal nerve cells in culture [2] [%]	Survival rate (%) of retinal nerve cells in culture ([1]; 1 mM glutamate + 100 μM test compound) [%]
COc1cc2nc(N3CCN(C(=O)c4ccco4)CC3)nc(N)c2cc1OC [prazosin HCl, prazosin hydrochloride]	65.2	67.1					
COc1cc2nc(N3CCN(C(=O)C4CCCO4)CC3)nc(N)c2cc1OC (stereo not shown) [terazosin HCl, terazosin hydrochloride]			69.8	70.7			
CCCC(=O)N1CCCN(c2nc(N)c3cc(OC)c(OC)cc3n2)CC1 [bunazosin HCl, bunazosin hydrochloride]		55.2			13	80	55.9
COc1ccccc1N1CCN(CC(O)COc2cccc3ccccc23)CC1 (stereo not shown) [naftopidil HCl, naftopidil hydrochloride]		68.9		59.2			
